ChEMBL document CHEMBL1201862, “PubChem BioAssay data set” (2004)
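Five concentrations, 48 hours, 96-well plates. GI50 is the concentration that inhibits growth by half.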 Activity calls are given as the source filed them. Cut-off read from the data, not from the text of the source: active = GI50 up to about 1.1 µM and inactive = higher.

Key:
Assay in all cases: DTP human tumour cell line panel, 48 h
[1] = test system: M14
[2] = test system: HT-29
[3] = test system: NCI-H460
[4] = test system: LOX IMVI
[5] = test system: HCC 2998
[6] = test system: HOP-62
[7] = test system: OVCAR-4
[8] = test system: HCT-116
[9] = test system: IGROV-1
[10] = test system: SNB-19
[11] = test system: UACC-62
[12] = test system: EKVX
[13] = test system: RXF 393
[14] = test system: A549
[15] = test system: SK-OV-3
[16] = test system: SN12C
[17] = test system: CCRF-CEM
[18] = test system: A498
[19] = test system: SK-MEL-28
[20] = test system: NCI-H522

## COc1ccc(-c2cc(C(O)C3CCCCN3)c3ccccc3n2)cc1 (stereo not given)
[1]
  GI50: 2.14 µM (inactive)
[2]
  GI50: 3.11 µM (inactive)
[3]
  GI50: 3.05 µM (inactive)
[4]
  GI50: 2.62 µM (inactive)
[5]
  GI50: 2.19 µM (inactive)
[6]
  GI50: 11.7 µM (inactive)
[7]
  GI50: 13.7 µM (inactive)
[8]
  GI50: 9.35 µM (inactive)
[9]
  GI50: 8.45 µM (inactive)
[10]
  GI50: 13.7 µM (inactive)
[11]
  GI50: 3.37 µM (inactive)
[12]
  GI50: 6.92 µM (inactive)
[13]
  GI50: 4.58 µM (inactive)
[14]
  GI50: 13.8 µM (inactive)
[15]
  GI50: 14.2 µM (inactive)
[16]
  GI50: 10.6 µM (inactive)
[17]
  GI50: 2.8 µM (inactive)
[18]
  GI50: 12.3 µM (inactive)
[19]
  GI50: 2.43 µM (inactive)
[20]
  GI50: 7.05 µM (inactive)

## CC1(C)N=C(N)N=C(N)N1c1ccc(Cl)cc1
[1]
  GI50: 4.88 µM (inactive)
[2]
  GI50: 2.92 µM (inactive)
[3]
  GI50: 3.38 µM (inactive)
[4]
  GI50: 1.34 µM (inactive)
[5]
  GI50: 9.02 µM (inactive)
[6]
  GI50: 9.02 µM (inactive)
[7]
  GI50: > 100 µM (inactive)
[8]
  GI50: 4.17 µM (inactive)
[9]
  GI50: 2.23 µM (inactive)
[10]
  GI50: 22.6 µM (inactive)
[11]
  GI50: 4.84 µM (inactive)
[12]
  GI50: 26.7 µM (inactive)
[13]
  GI50: 53.2 µM (inactive)
[14]
  GI50: 0.665 µM (active)
[15]
  GI50: 27.4 µM (inactive)
[16]
  GI50: 6.71 µM (inactive)
[17]
  GI50: 2.74 µM (inactive)
[18]
  GI50: 58.6 µM (inactive)
[19]
  GI50: 37.1 µM (inactive)
[20]
  GI50: 3.99 µM (inactive)

## Brc1ccc(C2CC(c3cccc4ccccc34)=Nc3ccccc3S2)cc1 (stereo not given)
[1]
  GI50: > 100 µM (inactive)
[2]
  GI50: 46.7 µM (inactive)
[3]
  GI50: > 100 µM (inactive)
[4]
  GI50: 44.8 µM (inactive)
[5]
  GI50: 30.4 µM (inactive)
[6]
  GI50: > 100 µM (inactive)
[7]
  GI50: 44.6 µM (inactive)
[8]
  GI50: 31.3 µM (inactive)
[9]
  GI50: > 100 µM (inactive)
[10]
  GI50: > 100 µM (inactive)
[11]
  GI50: 71.9 µM (inactive)
[12]
  GI50: 37.1 µM (inactive)
[13]
  GI50: > 100 µM (inactive)
[14]
  GI50: > 100 µM (inactive)
[15]
  GI50: > 100 µM (inactive)
[16]
  GI50: > 100 µM (inactive)
[17]
  GI50: 29 µM (inactive)
[18]
  GI50: > 100 µM (inactive)
[19]
  GI50: > 100 µM (inactive)
[20]
  GI50: 22.5 µM (inactive)

## CC(NNC(=O)c1cc[n+]([BH2-]C#N)cc1)c1ccc(F)cc1 (stereo not given)
[1]
  GI50: > 100 µM (inactive)
[2]
  GI50: > 100 µM (inactive)
[3]
  GI50: > 100 µM (inactive)
[4]
  GI50: > 100 µM (inactive)
[5]
  GI50: > 100 µM (inactive)
[6]
  GI50: > 100 µM (inactive)
[7]
  GI50: > 100 µM (inactive)
[8]
  GI50: > 100 µM (inactive)
[9]
  GI50: > 100 µM (inactive)
[10]
  GI50: > 100 µM (inactive)
[11]
  GI50: > 100 µM (inactive)
[12]
  GI50: > 100 µM (inactive)
[13]
  GI50: > 100 µM (inactive)
[14]
  GI50: > 100 µM (inactive)
[15]
  GI50: > 100 µM (inactive)
[16]
  GI50: > 100 µM (inactive)
[17]
  GI50: > 100 µM (inactive)
[18]
  GI50: > 100 µM (inactive)
[19]
  GI50: > 100 µM (inactive)
[20]
  GI50: > 100 µM (inactive)

## N#CSCC1COc2ccccc2O1 (stereo not given)
[1]
  GI50: 8.39 µM (inactive)
[2]
  GI50: > 10 µM (inactive)
[3]
  GI50: > 10 µM (inactive)
[4]
  GI50: 3.78 µM (inactive)
[5]
  GI50: > 10 µM (inactive)
[6]
  GI50: > 10 µM (inactive)
[7]
  GI50: > 10 µM (inactive)
[8]
  GI50: 5.92 µM (inactive)
[9]
  GI50: > 10 µM (inactive)
[10]
  GI50: > 10 µM (inactive)
[11]
  GI50: > 10 µM (inactive)
[12]
  GI50: > 10 µM (inactive)
[13]
  GI50: > 10 µM (inactive)
[14]
  GI50: > 10 µM (inactive)
[15]
  GI50: > 10 µM (inactive)
[16]
  GI50: 7.57 µM (inactive)
[17]
  GI50: 0.628 µM (active)
[18]
  GI50: > 10 µM (inactive)
[19]
  GI50: > 10 µM (inactive)
[20]
  GI50: 2.62 µM (inactive)
